One may read the melting point as the temperature, or range, at which the solid turns liquid.

Turning to `O=C(COc1cccc(NC(=O)c2cc(-c3cccc(F)c3)ccc2F)c1)OCCO` [Compound 1, 3-[(3′-Fluoro-4-fluorobiphenyl-3-carbonyl)amino]phenoxyacetic acid, ethylene glycol ester], the melting point lay in the range of 135 to 137 °C.
As for `NC(=O)COc1cccc(NC(=O)c2cc(-c3cccc(F)c3)ccc2F)c1` [Compound 3, 3-[(3′-Fluoro-4-fluorobiphenyl-3-carbonyl)amino]phenoxyacetamide], the melting point was in the range of 203 to 206 °C.
The same measure for `COC(=O)/C=C/c1cccc(NC(=O)c2cc(-c3cccc(F)c3)ccc2F)c1` [Compound 6, 3-[(3′-Fluoro-4-fluorobiphenyl-3-carbonyl)amino]cinnamic acid, methyl ester]: 144 to 145 °C; for `COC(=O)COc1cccc(NC(=O)c2cc(-c3cccc(F)c3)ccc2F)c1` [Compound 4, 3-[(3′-Fluoro-4-fluorobiphenyl-3-carbonyl)amino]phenoxyacetic acid, methyl ester]: 103 to 104 °C.
The figure for `NC(=O)/C=C/c1cccc(NC(=O)c2cc(-c3cccc(F)c3)ccc2F)c1` [Compound 7, 3-[(3′-Fluoro-4-fluorobiphenyl-3-carbonyl)amino]cinnamamide] is 216 to 218 °C.
In turn, `CC(C)OC(=O)/C=C/c1cccc(NC(=O)c2cc(-c3cccc(F)c3)ccc2F)c1` [Compound 5, 3-[(3′-Fluoro-4-fluorobiphenyl-3-carbonyl)amino]cinnamic acid, isopropyl ester] registered a melting point of 154 to 155 °C.

The record behind these values is patent publication US20100331410A1, “Biaryl Amides” (Asterand UK Limited, priority 2008, published 2010).
